Data set [1] concerns the target T1, recombinant human ARG1 (Homo sapiens, UniProt P05089).
T1 construct: made in house; host or cells: E. coli
T1 sequence (P05089 1-322): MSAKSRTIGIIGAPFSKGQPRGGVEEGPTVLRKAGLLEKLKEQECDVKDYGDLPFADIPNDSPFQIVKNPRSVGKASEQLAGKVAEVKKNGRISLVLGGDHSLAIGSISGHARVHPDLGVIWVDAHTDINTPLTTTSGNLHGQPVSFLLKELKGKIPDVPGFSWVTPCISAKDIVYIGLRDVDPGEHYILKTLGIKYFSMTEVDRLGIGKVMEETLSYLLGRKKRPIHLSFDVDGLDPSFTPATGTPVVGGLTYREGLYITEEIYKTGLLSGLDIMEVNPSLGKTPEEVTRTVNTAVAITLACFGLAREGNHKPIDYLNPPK
In words: Recombinant arginase activity assay, hARG1. To be noted: 1 h at 37°C, pH 7.4, 10 mM L-arginine, urea detection; read-out: Inhibition of recombinant hARG1: IC50. It counts as biochemical. Here is the method: The inhibitory activity towards hARG1 and hARG2 enzymes was assessed using recombinant enzymes biosynthesized using a prokaryotic expression system (E. coli) and purified by fast protein liquid chromatography (FPLC). Briefly, recombinant enzymes were incubated with the tested compounds for 1 h at 37°C in the reaction buffer (100 mM sodium phosphate buffer, 130 mM NaCl, 1 mg/mL BSA, pH 7.4) containing substrate (10 mM L-arginine hydrochloride) and cofactor (200 µM MnCl2). The assay is based on the detection of urea, which is generated during the conversion of L-arginine into L-ornithine catalyzed by arginases. To visualize the product, we adding a mixture of reagent A (4 mM oPA, 50 mM boric acid, 1 M sulfuric acid, 0.03% Brij-35) and reagent B (4 mM NED, 50 mM boric acid, 1 M sulfuric acid, 0.03% Brij-35) in equal proportions. The absorbance was measured at 515 nm. The urea production in the absence of any tested compound was considered as maximal enzyme activity. The absorbance in the absence of arginase (background) was considered as zero activity. Two reference compounds OAT-81 (ABH, no. 222638-65-5) and OAT-90 (2-amino-6-borono-2-(2-(3-(2,4-dichlorophenyl)propyloamino)ethyl) hexanoic acid, and two novel inhibitors OAT-1617 and OAT-1746 (the last three synthesized at OncoArendi Therapeutics) were tested. Normalized values were analyzed using GraphPad Prism 7.0 software and the IC50 values were determined.

Data set [2] relates to U87-MG glioma cells. The data set is described as follows: Matrigel invasion assay, U87-MG co-cultured with BV2 microglia. It counts as cell-based, human. How it is done: (§1) BV2 cells were plated onto a 24-well plate at the density of 4×10^4. After 24 h, the invasion assay was performed with tissue culture inserts (6.5 mm Transwell® with 8.0 µm Pore Polycarbonate Membrane Insert, Corning, NY, USA) coated with the Growth Factor Reduced Matrigel™ Matrix (BD Biosciences, San Diego. CA, USA). The Matrigel™ Matrix (50 µL of 1 mg/mL stock solution diluted in fresh DMEM) was dried under sterile conditions (37°C) for 5–6 h. The medium in BV2 cultures was replaced with fresh one 1 h before seeding glioblastoma cells onto the inserts, then LN18 and U87 glioblastoma cells were seeded at 2×10^4/insert on Matrigel-covered membranes in a serum-reduced medium (2% FBS). Untreated glioblastoma cells co-cultured with or without BV2 cells served as positive and negative controls, respectively. Cells were treated with the arginase-1 inhibitors OAT-90, OAT-1617 and OAT-1746 solved in PBS. The cultures were kept in incubator at 37°C with humidified air containing 5% CO2. After 18 h cells were fixed in ice-cold methanol and cell nuclei stained with DAPI (4′,6-Diamidino-2-Phenylindole; 1 µg/mL, Sigma). The membranes from Transwell® inserts were cut out and images were acquired using a fluorescence microscope (Leica DM4000B, 10x lens) from the 5 independent fields (bottom; top; left; right side and the middle). Numbers of invading cells were counted using the ImageJ software (NIH, Bethesda, MD, USA). All experiments were performed three times, in duplicates.

Data set [3] concerns LN18 glioma cells. The data set is described as follows: Matrigel invasion assay, LN18 co-cultured with BV2 microglia. The note with it: 11 µM, co-culture with BV2, 18 h. Type of data set: cell-based, human. Here is the method:
as §1, with “After 18 h cells were fixed in ice-cold methanol and cell nuclei stained with DAPI (4′,6-Diamidino-2-Phenylindole; 1 µg/mL, Sigma).” left out, “All experiments were performed three times, in duplicates.” left out

The subject of data set [4] is BV2 microglial cells. In words: MTT viability assay, BV2. It counts as cell-based, mouse. To be noted: 24 h, concentrations up to 1000 µM. How it is done: Cell viability was assessed using MTT metabolism assay (U87 and BV2 cells) or MTS CellTiter 96® AQueous One Solution Cell Proliferation Assay (Promega) for the primary murine microglia cultures. Cells were cultured either in 96-well plates (U87 at density of 1×10^4) or 24-well plates (BV2 at density of 4×10^4 and primary microglia 8×10^4) with the indicated concentrations of the inhibitor or H2O (vehicle) for 24 h. MTT solution (Sigma Aldrich) was added to each well to a final concentration of 0.5 mg/mL. After 1 h of incubation at 37°C, water-insoluble dark blue formazan crystals were dissolved in DMSO. Optical densities (OD) were measured at 570 and 620 nm using a scanning multiwell spectrophotometer. The MTT assay was performed according to the manufacturer’s protocol. All measurements were carried out on three independent cell passages, in triplicates.
Background: Tetrazolium dyes change colour on reduction, which living cells bring about.

The nature of data set [5]: Drug concentration in brain by LC-MS. Type of data set: in vivo, mouse. To be noted: GL261-bearing mice, 50 mg/kg oral twice a day, 14 days, 2 h after last dose. Here is the method: (§2) Blood plasma, as well as the brain samples (from control and treated animals), were prepared for liquid chromatography coupled with mass spectrometry (LC-MS) by homogenization in 5% trichloroacetic acid (TCA) and the concentration of L-arginine – the substrate of arginase – was determined. In the urea cycle, arginase cleaves arginine to produce urea and ornithine. Ornithine reacts with carbamoyl phosphate to form citrulline. The brain homogenates prepared for arginine measurements, as well as plasma samples were also analyzed by LC-MS to determine the concentration of the drug, which was administered to animals 2 h before the euthanasia.

The subject of data set [6] is L-arginine (substrate of arginase). In words: L-arginine concentration in brain and plasma by LC-MS. The note with it: GL261-bearing mice, 50 mg/kg oral twice a day, day 14, 2 h after last dose. Type of data set: in vivo, mouse. How it is done:
as §2

Data set [7] deals with ARG1/2. Details: method as in PMID 31278254. The note with it: cited from earlier work.

“Also recorded” adds a separate entry of the source.

The values below come from PMC8422859, “A Novel Oral Arginase 1/2 Inhibitor Enhances the Antitumor Effect of PD-1 Inhibition in Murine Experimental Gliomas by Altering the Immunosuppressive Environment” (Frontiers in Oncology, 2021).

In general, IC50 refers to the concentration at which inhibition is half-maximal. In the case of `CN(C)C[C@@H]1CC[C@@H](CCB(O)O)C[C@]1(N)C(=O)O` [OAT-1746], the IC50 in data set [1] stood at 28 nM. For the same compound, the “microglia-induced invasion of U87-MG cells” value in data set [2] (11 µM, co-culture with BV2, 18 h) was “effectively reduced glioma invasion; also recorded: reduced microglia-induced invasion of glioma cells more efficiently”. For the same compound, the “concentration dependence of the inhibitory effect on glioma invasion” value in data set [2] (0.1 and 11 µM, U87-MG with BV2) is “concentration-dependent”. Also, in data set [3], the “microglia-induced invasion of LN18 cells” value is given as “effectively reduced glioma invasion; also recorded: reduced microglia-induced invasion of glioma cells more efficiently”. Moreover, the “viability of BV2 microglial cells (toxicity)” value in data set [4] is given as “not toxic”. In data set [5], the “OAT-1746 in the brain (crossing of the BBB)” value is reported as “detected in the brain extracts”. In data set [6], the “arginine concentration in the blood plasma” value is recorded as “increase of arginine concentration” and the “arginine concentration in the brain” value is “increase of arginine concentration”. The “inhibition of ARG1/2” value in data set [7] is reported as “low nanomolar concentrations”.
